Reference: PMC8808171, “Nonselective TRPC channel inhibition and suppression of aminoglycoside-induced premature termination codon readthrough by the small molecule AC1903” (The Journal of Biological Chemistry, 2022)
pIC50: −log10 of the molar value.

Target: T1, TRPV4:V4 (Homo sapiens, UniProt Q9HBA0)
T1 construct: expressed in transfected cells
Assay: [Ca2+]i recordings (Fura-2), TRPV4:V4 in CHO cells
Type: cell-based
Conditions: activator 4α-PDD
Description: Based on the findings described above, we wondered whether AC1903—which is typically used as a TRPC5 inhibitor at concentrations of 30–100 μM in cellular assays ([29], [56])—might have limited selectivity for TRPC5 channels and whether its effect on intracellular G418 levels and PTC readthrough might be the consequence of inhibition of other or multiple targets. All well-characterized TRPC channel inhibitors reported to date modulate multiple TRP(C) channels ([34], [35], [36]). […] Because limited data for the selectivity of AC1903 are available in the public domain, we decided to profile AC1903 against a selection of calcium-permeable cation channels by intracellular calcium ([Ca^2+]i) recordings using well-characterized cell lines and TRP channel activators ([46], [57], [58]), and the Ca^2+ indicator Fura-2. In these assays, cells (HEK 293, HEK T-REx, or CHO) overexpressing the relevant ion channel protein and loaded with Fura-2 AM (a cell-permeable precursor of Fura-2) were preincubated with various concentrations of AC1903 or vehicle (DMSO) for 30 min. Then, changes in ratiometric fluorescence (from background) were recorded upon addition of the respective ion channel activator. […]

T1 sequence (Q9HBA0 whole entry): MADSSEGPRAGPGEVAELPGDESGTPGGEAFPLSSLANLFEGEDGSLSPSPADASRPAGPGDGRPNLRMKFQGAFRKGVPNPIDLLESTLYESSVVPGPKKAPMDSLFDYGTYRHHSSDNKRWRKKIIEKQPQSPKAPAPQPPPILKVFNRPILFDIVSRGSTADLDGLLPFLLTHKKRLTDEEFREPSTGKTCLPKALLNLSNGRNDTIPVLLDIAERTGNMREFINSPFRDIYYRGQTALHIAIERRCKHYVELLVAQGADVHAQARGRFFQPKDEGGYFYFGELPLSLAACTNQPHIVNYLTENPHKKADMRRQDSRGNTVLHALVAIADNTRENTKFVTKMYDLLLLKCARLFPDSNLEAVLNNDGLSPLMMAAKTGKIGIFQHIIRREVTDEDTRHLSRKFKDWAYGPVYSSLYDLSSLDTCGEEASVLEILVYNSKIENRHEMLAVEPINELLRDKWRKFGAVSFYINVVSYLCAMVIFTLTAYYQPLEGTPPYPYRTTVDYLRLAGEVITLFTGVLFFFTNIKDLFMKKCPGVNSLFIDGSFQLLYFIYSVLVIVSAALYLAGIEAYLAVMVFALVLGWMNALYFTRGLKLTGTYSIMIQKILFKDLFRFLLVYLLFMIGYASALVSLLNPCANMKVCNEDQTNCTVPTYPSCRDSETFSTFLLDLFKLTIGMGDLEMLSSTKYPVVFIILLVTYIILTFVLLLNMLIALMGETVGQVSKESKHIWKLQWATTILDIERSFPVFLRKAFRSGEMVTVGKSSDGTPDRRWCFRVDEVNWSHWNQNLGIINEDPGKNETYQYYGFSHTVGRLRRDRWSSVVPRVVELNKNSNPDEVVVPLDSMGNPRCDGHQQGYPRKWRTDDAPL

c1ccc(Cn2c(NCc3ccco3)nc3ccccc32)cc1 [AC1903]
pIC50 (CHO): 4.72
Hill slope: -1.7
